These results are taken from PMC5773487, “Harnessing insulin- and leptin-induced oxidation of PTP1B for therapeutic development” (Nature Communications, 2018).

For experiment [1], the target named is T1, oxidized PTP1B-mut2 (L37F/K39E/K41R) (Homo sapiens, UniProt P18031, K39E/K41R/L37F).
T1 construct: PTP1B (1–321) and TCPTP (1–317) cloned in pET21b vector were used as templates; 6xHis (C); made in house; host or cells: E. coli BL21 (DE3)-RIL
T1 sequence (P18031 1-321 L37F/K39E/K41R): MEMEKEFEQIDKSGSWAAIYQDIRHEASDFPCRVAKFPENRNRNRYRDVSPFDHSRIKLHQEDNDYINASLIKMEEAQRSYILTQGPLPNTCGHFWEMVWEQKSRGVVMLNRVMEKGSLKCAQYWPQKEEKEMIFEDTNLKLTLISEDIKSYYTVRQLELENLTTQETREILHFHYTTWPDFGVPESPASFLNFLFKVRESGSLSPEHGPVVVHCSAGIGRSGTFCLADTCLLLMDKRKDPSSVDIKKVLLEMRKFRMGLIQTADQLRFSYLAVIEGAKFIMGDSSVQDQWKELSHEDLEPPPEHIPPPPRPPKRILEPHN
The experiment is described as follows: reduction and reactivation of oxidized PTP1B-mut2, DiFMUP, TCEP. In kind it is biochemical. The note with it: TCEP 5 mM. The method, then:
Fig. 1 Molecular characterization of PTP1B-scFv45 interaction. a Overlay of PTP1B (gray) and TCPTP (pale blue) crystal structures, highlighting residues that are changed in generating mutant forms (-mut1 and -mut2) of the enzymes. b Increasing concentrations of recombinant HA-tagged scFv45 were incubated with oxidized wild-type (-wt) or mutant (-mut) forms of PTP1B (top panel) and oxidized wild-type or mutant forms of TCPTP (bottom panel). The protein complexes were precipitated with anti-HA-agarose beads and equivalent amounts of input, supernatant, and eluate were subjected to immunoblot analysis. Data are representative of at least three independent experiments (n = 3). c Michaelis–Menten plots for wild-type (circle), -mut1 (square), or -mut2 (triangle) forms of PTP1B (left) and TCPTP (right) are shown. […] Individual data points represent the mean obtained from three separate experiments (n = 3). d Wild-type and mutant forms of PTP1B were incubated with increasing concentrations of H2O2 and phosphatase activity was measured using DiFMUP in the absence (black bar) and presence (gray bar) of the reducing agent TCEP (5 mM). e Oxidized PTP1B-wt (circle), PTP1B-mut1 (square), or PTP1B-mut2 (triangle) were incubated with increasing concentration of scFv45 (0–1000 nM) and phosphatase activity was measured using DiFMUP as substrate in the presence of the reducing agent TCEP (5 mM). […]

Experiment [2] relates to insulin signaling in 293T cells. Briefly: insulin signaling in 293T cells (immunoblot). In kind it is cell-based. The settings on record: for insulin-induced activation of AKT (pThr308) / insulin-induced phosphorylation of insulin receptor β-subunit (IR-β): 293T cells, compound 2 μM 1 h, insulin 25 nM. The method, then:
To study the effect of chelerythrine and protopine on insulin signaling we used 293T cells (ATCC) and cultured in DMEM containing 10% FBS. For insulin signaling, cells were serum starved for 16 h and then treated with chelerythrine (2 µM) or protopine (2 µM) for 1 h. Following which, cells were treated with 25 nM insulin for various times (0, 5, 10, 20 min) at 37 °C. Cells were washed with PBS and lysed in de-gassed RIPA lysis buffer (25 mM HEPES pH 7.5, 150 mM NaCl, 0.25% Deoxychloate, 10% Glycerol, 25 mM NaF, 10 mM MgCl2, 1 mM EDTA, 1% Triton X-100, 0.5 mM PMSF, 10 mM Benzamidine, cOmplete protease inhibitor cocktail (Roche)). Soluble proteins were harvested by centrifugation at 13,000×g for 10 min at 4 °C and quantitated. Total proteins in the cell lysates were separated by SDS-PAGE and tyrosyl phosphorylation of the IR-β subunit and downstream AKT activation was monitored. To test the effect of suppressing H2O2 levels on the function of the compounds, catalase was ectopically expressed in cells for 24 h. Following which, the cells were treated with the compounds as mentioned above. […] Catalase expression was detected in the cell samples with a rabbit polyclonal antibody (Abcam, ab52477).
Mammalian expression plasmids used in this study were as follows: pCMV-FLAG and pCMV-FLAG-PTP1B (wt and -mut2). Empty vector, FLAG-PTP1B-wt, or FLAG-PTP1B-mut2 were transfected into 293T cells for 24 h, following which, cells were serum starved for 8 h and then treated with chelerythrine (2 µM) for 1 h. Subsequently, cells were treated with 10 nM insulin for various times (0, 10, 20 min) at 37 °C. Cells were washed with PBS and lysed in de-gassed RIPA lysis buffer (25 mM HEPES pH 7.5, 150 mM NaCl, 0.25% Deoxycholate, 10% Glycerol, 25 mM NaF, 10 mM MgCl2, 1 mM EDTA, 1% Triton X-100, 0.5 mM PMSF, 10 mM Benzamidine, cOmplete protease inhibitor cocktail (Roche)). Soluble proteins were harvested by centrifugation at 13,000×g for 10 min at 4 °C and quantitated. Total proteins in the cell lysates were separated by SDS-PAGE and tyrosyl phosphorylation of the IR-β subunit was analyzed by immunoblotting.

“Also recorded” adds a separate entry of the source.

Take `COc1ccc2c(c[n+](C)c3c4cc5c(cc4ccc23)OCO5)c1OC` [chelerythrine]: the “inhibition of reduction and reactivation of oxidized PTP1B-mut2” value in experiment [1] was “unable to inhibit; also recorded: insensitive”. Besides, in experiment [2], the “basal signaling in the absence of insulin or leptin” value is “no impact”; the “insulin-induced activation of AKT (pThr308)” value is recorded as “enhanced”; the “insulin-induced phosphorylation of insulin receptor β-subunit (IR-β)” value was “enhanced and sustained phosphorylation”. Moreover, the “stimulatory effect on IR-β phosphorylation and AKT activation upon catalase overexpression” value in experiment [2] (293T cells expressing catalase, 2 μM) is “ablated”. For the same molecule, in experiment [2] (293T, 2 μM, insulin 10 nM), the “insulin signaling in cells expressing PTP1B-mut2” value was “insensitive”; the “insulin signaling in control and PTP1B-wt expressing cells” value is listed as “elevated insulin signaling”. The observed cellular efficacy in experiment [2] (reviewer's remark in peer review file) was < 2 µM.
As for `CN1CCc2cc3c(cc2C(=O)Cc2ccc4c(c2C1)OCO4)OCO3` [protopine], in experiment [2], the “insulin-induced activation of AKT (pThr308)” value is “no significant effect” and the “insulin-induced phosphorylation of insulin receptor β-subunit (IR-β)” value was “no significant effect”.

B1: scFv45: recombinant conformation-sensor single-chain variable fragment antibody recognizing oxidized PTP1B (antibody, V domains shown)
VH: TVTLDESGGGLQAPGGALSLVCKASGFTFSSYDMGWIRQAPGKGLEYVAGITDNGRYASYGSAVDGRATISRDNGQSSVRLQLNNLRAEDTGTYYCARDDGSGWTGNSIDAWGHGTEVIVSE
VL: ALTQPSSVSANPGGTVKITCSGSSSAYGYGWYQQKSPGSAPVTVIYNNNKRPSNIPSRFSGSKSGSTGTLTITGVQAEDEAVYFCGSEDSSTDAIFGAGTTLTVL
Consider B1, for which the “inhibition of reduction and reactivation of oxidized PTP1B-mut2” value in experiment [1] is given as “did not attenuate”.
